This note sets out measurements from US20050272750A1, “Novel compound” (AstraZeneca AB, priority 2002, published 2005).

Data set [1] addresses T1, hrCXCR2 (Homo sapiens, UniProt P25025).
T1 construct: expressed in transfected cells; host or cells: HEK 293 cells (ECACC No. 85120602), membranes of the highest expressing clone
T1 sequence (P25025 1-360): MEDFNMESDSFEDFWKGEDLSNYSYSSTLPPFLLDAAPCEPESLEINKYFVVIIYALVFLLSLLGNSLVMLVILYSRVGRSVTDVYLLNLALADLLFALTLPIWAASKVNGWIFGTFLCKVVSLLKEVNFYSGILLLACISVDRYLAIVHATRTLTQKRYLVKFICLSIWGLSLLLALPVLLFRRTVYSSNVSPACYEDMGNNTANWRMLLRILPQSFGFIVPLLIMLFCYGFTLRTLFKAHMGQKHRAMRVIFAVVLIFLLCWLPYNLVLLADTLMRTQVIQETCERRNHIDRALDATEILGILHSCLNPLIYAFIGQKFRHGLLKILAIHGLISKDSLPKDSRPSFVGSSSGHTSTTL
Description: Ligand binding assay ([125I]IL-8 displacement, HEK 293 membranes). The settings on record: [125I]IL-8 binding to membranes of HEK 293 cells expressing hrCXCR2; 1.5 hours at room temperature. An excerpt:
[^125I]IL-8 (human, recombinant) was purchased from Amersham, U.K. with a specific activity of 2,000 Ci/mmol. All other chemicals were of analytical grade. High levels of hrCXCR2 were expressed in HEK 293 cells (human embryo kidney 293 cells ECACC No. 85120602) (Lee et al. (1992) J. Biol. Chem. 267 pp 16283-16291). hrCXCR2 cDNA was amplified and cloned from human neutrophil mRNA. The DNA was cloned into PCRScript (Stratagene) and clones were identified using DNA. The coding sequence was sub-cloned into the eukaryotic expression vector RcCMV (Invitrogen). Plasmid DNA was prepared using Quiagen Megaprep 2500 and transfected into HEK 293 cells using Lipofectamine reagent (Ginbco BRL). Cells of the highest expressing clone were harvested in phosphate-buffered saline containing 0.2% (w/v) ethylenediaminetetraacetic acid (EDTA) and centrifuged (200 g, 5 min.). The cell pellet was resuspended in ice cold homogenisation buffer [[…] HEPES (pH 7.4), 1 mM dithiothreitol 1 mM EDTA and a panel of protease inhibitors (1 mM phenyl methyl sulphonyl fluoride, 2 μg/ml soybean trypsin inhibitor, 3 mM benzamidine, 0.5 μg/ml leupeptin and 100 μg/ml bacitracin)] and the cells left to swell for 10 minutes. […] The backing plate was removed from the MultiScreen plate assembly, the filters dried at room temperature, punched out and then counted on a Cobra γ-counter.

Data set [2] has as its target T2, CXCR2 receptor in human neutrophils (Homo sapiens, UniProt P25025).
T2 construct: Human neutrophils were prepared from EDTA-treated peripheral blood; endogenous in cells; host or cells: human neutrophils from peripheral blood
T2 sequence (P25025 1-360): T1 sequence (P25025 1-360)
Description: Intracellular calcium mobilisation assay (GROα-stimulated, fluo-3, FLIPR). It counts as cell-based. The note with it: A50 concentration of GROα, fluo-3 fluorescence. The procedure:
Intracellular Calcium Mobilisation Assay
Human neutrophils were prepared from EDTA-treated peripheral blood, as previously described (Baly et al. (1997) Methods in Enzymology 287 pp70-72), in storage buffer [Tyrode's salt solution (137 mM NaCl 2.7 mM KCl, 0.4 mM NaH2PO4) supplemented with 5.7 mM glucose and 10 mM HEPES (pH 7.4)].
The chemokine GROα (human, recombinant) was purchased from R&D Systems (Abingdon, U.K.). All other chemicals were of analytical grade. Changes in intracellular free calcium were measured fluorometrically by loading neutrophils with the calcium sensitive fluorescent dye, fluo-3, as described previously (Merritt et al. (1990) Biochem. J. 269, pp513-519). Cells were loaded for 1 hour at 37° C. in loading buffer (storage buffer with 0.1% (w/v) gelatin) containing 5 μM fluo-3 AM ester, washed with loading buffer and then resuspended in Tyrode's salt solution supplemented with 5.7 mM glucose, 0.1% (w/v) bovine serum albumin (BSA), 1.8 mM CaCl2 and 1 mM MgCl2. […]
A compound of formula (1) according to the Examples was pre-dissolved in DMSO and added to a final concentration of 0.1% (v/v) DMSO. Assays were initiated by the addition of an A50 concentration of GROα and the transient increase in fluo-3 fluorescence (λEx=490 nm and λEm=520 nm) monitored using a FLIPR (Fluorometric Imaging Plate Reader, Molecular Devices, Sunnyvale, U.S.A).
A general note: Calcium flux is commonly read through the fluorescence of an indicator in the cells.

On to `C[C@H](O)[C@H](CO)Nc1nc(SCc2cccc(F)c2F)nc2[nH]c(=O)sc12` [compound of formula (I), 5-[((2,3-difluorophenyl)methyl)thio]-7-{[(1S,2S)-2-hydroxy-1-(hydroxymethyl)propyl]amino}thiazolo[4,5-d]pyrimidin-2(3B)-one], for which the melting point (in general, the temperature, or range, at which the solid turns liquid) lay within 202 to 204 °C. Moreover, the IC50 (commonly the concentration at which inhibition is half-maximal) in data set [1] was below 10 µM. In data set [2], the “antagonism of the CXCR2 receptor (GROα-induced intracellular calcium increase)” value is listed as “antagonist”.
